In US7459477B2, “Substituted N-phenyl-phenoxy nicotinic acid-(thio)amides and their use as herbicides” (Nihon Nohyaku, Co., Ltd., priority 2001, dated 2008):

Tests used:
Type in all cases: in vivo
[1] = test system: Diamond Back Moth (Plutella xylostella); experiment: Insecticidal effect on diamond back moth (Test Example 1); details: 500 ppm; Chinese cabbage seedling with eggs immersed about 30 seconds; six days after the immersion; 25° C.
Excerpt: Insecticidal Effect on Diamond Back Moth (Plutella xylostella)
Adult diamond back moths were released and allowed to oviposit on a Chinese cabbage seedling. Two days after the release, the seedling having the eggs deposited thereon was immersed for about 30 seconds in a liquid chemical prepared by diluting a preparation containing each compound listed in Tables 1 to 4 as an active ingredient to adjust the concentration to 500 ppm. After air-dryness, it was allowed to stand in a room thermostatted at 25° C. Six days after the immersion, the hatched insects were counted. The mortality was calculated according to the following equation and the insecticidal effect was judged according to the criterion shown below. The test was carried out with triplicate groups of 10 insects.

[2] = test system: Green Peach Aphid (Myzus Persicae); experiment: Insecticidal effect on green peach aphid (Test Example 4); details: 500 ppm; stems and leaves of Chinese cabbage sprayed; six days after the spraying; greenhouse
Excerpt: Insecticidal Effect on Green Peach Aphid (Myzus Persicae)
A Chinese cabbage plant was planted in each of plastic pots with a diameter of 8 cm and a height of 8 cm, and green peach aphids were propagated on the plant. Then, the stems and leaves were sufficiently sprayed with a liquid chemical prepared by diluting a preparation containing each compound listed in Tables 1 to 4 as an active ingredient to adjust the concentration to 500 ppm. After air-drying, the pots were allowed to stand in a greenhouse. Six days after the spraying, green peach aphids parasitic on each Chinese cabbage plant were counted and the control efficacy was calculated, whereby the […] effect was judged according to the criterion shown below. Control efficacy (%)=100−[(T×Ca)/(Ta×C)]×100 • Ta: number of parasites before spraying in treated group, • T: number of parasites after spraying in treated group,
Ca: number of parasites before spraying in untreated group, • […]: number of parasites after spraying in untreated group. Criterion for Judgment: • A: control efficacy 100% • B: control efficacy 99 to 90% • C: control efficacy 89 to 80% • D: control efficacy 79 to 50%

[3] = test system: Two-Spotted Spider Mite (Tetranychus Urticae); experiment: Acaricidal effect on two-spotted spider mite (Test Example 3); details: 500 ppm; kidney bean leaf disc with female adults sprayed; two days after the treatment; 25° C.
Method: Acaricidal Effect on Two-Spotted Spider Mite (Tetranychus Urticae)
A leaf disc with a diameter of 2 cm was made of a kidney bean leaf, placed on wet filter paper, inoculated with female adult two-spotted spider mites, and then uniformly sprayed, on a turntable, with 50 ml of a liquid chemical prepared by diluting a preparation containing each compound listed in Tables 1 to 4 as an active ingredient to adjust the concentration to 500 ppm. After the spraying, the leaf disc was allowed to stand in a room thermostated at 25° C. Two days after the treatment with the preparation, the dead insects were counted and the acaricidal effect was judged according to the criterion shown in Test Example 1. The test was carried out with two replications of 10 insects.

Structure (SMILES) | insecticidal effect (mortality rating) [1] | control efficacy rating [2] | acaricidal effect (mortality rating) [3]
CCCc1cc(C(C(F)(F)F)C(F)(F)F)ccc1NC(=O)c1c(C)nn(C)c1Cl [1-4] | B or higher | B or higher | –
CCC(C)c1cc(C(C(F)(F)F)C(F)(F)F)ccc1NC(=O)c1c(C)nn(C)c1Cl (stereo not shown) [1-8] | – | B or higher | –
Cc1nn(C)c(Cl)c1C(=O)Nc1ccc(C(C(F)(F)F)C(F)(F)F)c2ccccc12 [1-17] | B or higher | – | –
Cc1nn(C)c(Cl)c1C(=O)Nc1ccc(C(C(F)(F)F)C(F)(F)F)cc1-c1ccccc1 [1-20] | B or higher | – | –
Cc1nn(C)c(Cl)c1C(=O)Nc1ccc(C(F)(C(F)(F)F)C(F)(F)F)cc1C(C)C(C)C (stereo not shown) [1-21] | B or higher | – | –
CCCC(C)c1cc(C(C(F)(F)F)C(F)(F)F)ccc1NC(=O)c1c(C)nn(C)c1Cl (stereo not shown) [1-22] | – | – | B or higher
CCCC(C)c1cc(C(C(F)(F)F)C(F)(F)F)ccc1NC(=O)c1c(C)nn(C)c1C (stereo not shown) [1-25] | – | B or higher | B or higher
CCCC(C)c1cc(C(OC)(C(F)(F)F)C(F)(F)F)ccc1NC(=O)c1c(C)nn(C)c1C (stereo not shown) [1-26] | B or higher | – | B or higher
CC(C)CC(C)c1cc(C(F)(C(F)(F)F)C(F)(F)F)ccc1NC(=O)c1cn(C)nc1C(F)(F)F (stereo not shown) [1-28] | B or higher | – | –
CC(C)CC(C)c1cc(C(C(F)(F)F)C(F)(F)F)ccc1NC(=O)c1cn(C(F)F)nc1C(F)(F)F (stereo not shown) [1-33] | B or higher | – | –
Cc1nn(C)cc1C(=O)Nc1ccc(C(C(F)(F)F)C(F)(F)F)cc1C(C)CC(C)C (stereo not shown) [1-34] | – | – | B or higher
CCc1nn(C)cc1C(=O)Nc1ccc(C(C(F)(F)F)C(F)(F)F)cc1C(C)CC(C)C (stereo not shown) [1-35] | B or higher | B or higher | –
CC(C)CC(C)c1cc(C(C(F)(F)F)C(F)(F)F)ccc1NC(=O)c1cn(C)nc1Br (stereo not shown) [1-39] | – | – | B or higher
CC(C)CC(C)c1cc(C(C(F)(F)F)C(F)(F)F)ccc1NC(=O)c1cn(C)nc1I (stereo not shown) [1-40] | – | – | B or higher
CSc1nn(C)cc1C(=O)Nc1ccc(C(C(F)(F)F)C(F)(F)F)cc1C(C)CC(C)C (stereo not shown) [1-41] | B or higher | B or higher | –
CC(C)CC(C)c1cc(C(C(F)(F)F)C(F)(F)F)ccc1NC(=O)c1cnn(C)c1S(C)(=O)=O (stereo not shown) [1-48] | B or higher | – | –
CCn1ncc(C(=O)Nc2ccc(C(C(F)(F)F)C(F)(F)F)cc2C(C)CC(C)C)c1Cl (stereo not shown) [1-51] | – | – | B or higher
CC(C)CC(C)c1cc(C(C(F)(F)F)C(F)(F)F)ccc1NC(=O)c1cnn(C)c1I (stereo not shown) [1-56] | B or higher | – | –
CCn1ncc(C(=O)Nc2ccc(C(C(F)(F)F)C(F)(F)F)cc2C(C)CC(C)C)c1I (stereo not shown) [1-57] | B or higher | – | –
Cc1nn(C)c(F)c1C(=O)Nc1ccc(C(C(F)(F)F)C(F)(F)F)cc1C(C)CC(C)C (stereo not shown) [1-65] | B or higher | B or higher | B or higher
Cc1nn(C)c(Cl)c1C(=O)Nc1ccc(C(F)(C(F)(F)F)C(F)(F)F)cc1C(C)CC(C)C (stereo not shown) [1-70] | B or higher | – | –
CCOC(c1ccc(NC(=O)c2c(C)nn(C)c2Cl)c(C(C)CC(C)C)c1)(C(F)(F)F)C(F)(F)F (stereo not shown) [1-73] | B or higher | – | –
CCn1nc(C)c(C(=O)Nc2ccc(C(C(F)(F)F)C(F)(F)F)cc2C(C)CC(C)C)c1Cl (stereo not shown) [1-78] | – | – | B or higher
Cc1nn(C)c(Br)c1C(=O)Nc1ccc(C(C(F)(F)F)C(F)(F)F)cc1C(C)CC(C)C (stereo not shown) [1-81] | – | B or higher | B or higher
COC(c1ccc(NC(=O)c2c(C)nn(C)c2Br)c(C(C)CC(C)C)c1)(C(F)(F)F)C(F)(F)F (stereo not shown) [1-82] | B or higher | – | B or higher

Structure (SMILES) | insecticidal effect (mortality rating) [1] | control efficacy rating [2] | acaricidal effect (mortality rating) [3]
Cc1nn(C)c(I)c1C(=O)Nc1ccc(C(C(F)(F)F)C(F)(F)F)cc1C(C)CC(C)C (stereo not shown) [1-87] | – | B or higher | –
COC(c1ccc(NC(=O)c2c(C(F)(F)F)nn(C)c2Cl)c(C(C)CC(C)C)c1)(C(F)(F)F)C(F)(F)F (stereo not shown) [1-104] | – | – | B or higher
Cc1nn(C)c(C)c1C(=O)Nc1ccc(C(C(F)(F)F)C(F)(F)F)cc1C(C)CC(C)C (stereo not shown) [1-107] | B or higher | – | –
CCCn1nc(C)c(C(=O)Nc2ccc(C(C(F)(F)F)C(F)(F)F)cc2C(C)CC(C)C)c1C (stereo not shown) [1-119] | – | – | B or higher
CCc1nn(C)c(Cl)c1C(=O)Nc1ccc(C(C(F)(F)F)C(F)(F)F)cc1C(C)CC(C)C (stereo not shown) [1-132] | B or higher | – | B or higher
CCCCC(C)c1cc(C(C(F)(F)F)C(F)(F)F)ccc1NC(=O)c1c(C)nn(C)c1Cl (stereo not shown) [1-143] | B or higher | – | B or higher
Cc1nn(C)c(Cl)c1C(=O)Nc1ccc(C(F)(C(F)(F)F)C(F)(F)F)cc1C(C)CCC(C)C (stereo not shown) [1-145] | B or higher | – | –
Cc1nn(C)c(C)c1C(=O)Nc1ccc(C(F)(C(F)(F)F)C(F)(F)F)c(C)c1C [1-163] | B or higher | – | –
Cc1nn(C)c(C)c1C(=O)Nc1ccc(C(C(F)(F)F)C(F)(F)F)c(C)c1C [1-164] | B or higher | – | –
CC(C)CC(C)c1cc(C(C(F)(F)F)C(F)(F)F)ccc1NC(=O)c1ncc(Cl)cc1Cl (stereo not shown) [3-2] | B or higher | – | –
CC(C)CC(C)c1cc(C(C(F)(F)F)C(F)(F)F)ccc1NC(=O)c1cnccc1C(F)(F)F (stereo not shown) [3-3] | B or higher | – | –
CC(C)CC(C)c1cc(C(C(F)(F)F)C(F)(F)F)ccc1NC(=O)c1cccnc1Cl (stereo not shown) [3-4] | B or higher | – | –
Cc1nnsc1C(=O)Nc1ccc(C(F)(C(F)(F)F)C(F)(F)F)cc1C(C)CC(C)C (stereo not shown) [3-10] | B or higher | – | –
Cc1coc(C)c1C(=O)Nc1ccc(C(C(F)(F)F)C(F)(F)F)cc1C(C)CC(C)C (stereo not shown) [3-13] | – | B or higher | B or higher
CC(C)CC(C)c1cc(C(C(F)(F)F)C(F)(F)F)ccc1NC(=O)c1cscc1Br (stereo not shown) [3-21] | – | – | B or higher
CC(C)CC(C)c1cc(C(C(F)(F)F)C(F)(F)F)ccc1NC(=O)c1cccs1 (stereo not shown) [3-27] | – | B or higher | –
Cc1noc(C)c1C(=O)Nc1ccc(C(C(F)(F)F)C(F)(F)F)cc1C(C)CC(C)C (stereo not shown) [3-34] | – | B or higher | –
Cc1c(Cl)c(C(=O)Nc2ccc(C(C(F)(F)F)C(F)(F)F)cc2C(C)CC(C)C)nn1C (stereo not shown) [4-1] | B or higher | B or higher | –
Cc1nn(C)c(C(=O)Nc2ccc(C(C(F)(F)F)C(F)(F)F)cc2C(C)CC(C)C)c1Cl (stereo not shown) [4-4] | B or higher | – | –
Cc1nn(C)c(C(=O)Nc2ccc(C(C(F)(F)F)C(F)(F)F)cc2C(C)CC(C)C)c1Br (stereo not shown) [4-5] | B or higher | – | –
Cc1nn(C)c(Cl)c1C(=O)Nc1ccc(C(C(F)(F)F)C(F)(F)F)cc1C(C)(C)C [Compound No. 1-10] | B or higher | – | –
Cc1nn(C)c(Cl)c1C(=O)Nc1ccc(C(C(F)(F)F)C(F)(F)F)c2c1CCCC2 [Compound No. 1-14] | B or higher | – | –
COC(c1ccc(NC(=O)c2c(C)nn(C)c2C)c(C(C)CC(C)C)c1)(C(F)(F)F)C(F)(F)F (stereo not shown) [Compound No. 1-108, N-{2-(1,3-dimethylbutyl)-4-[1-methoxy-2,2,2-trifluoro-1-(trifluoromethyl)ethyl]-phenyl}-1,3,5-trimethylpyrazole-4-carboxamide] | B or higher | – | –
Cc1nn(C)c(Cl)c1C(=O)Nc1ccc(C(C(F)(F)F)C(F)(F)F)cc1C(C)CCC(C)C (stereo not shown) [Compound No. 1-146, N-{2-(1,4-dimethylpentyl)-4-[2,2,2-trifluoro-1-(trifluoromethyl)ethyl]phenyl}-5-chloro-1,3-dimethylpyrazole-4-carboxamide] | B or higher | B or higher | B or higher
